Measured values reported in patent US8569509B2, “Thiazole-4-carboxylic acid esters and thioesters as plant protection agents” (priority 2008, dated 2013).

Test: log P determination (HPLC, calibration with unbranched alkan-2-ones)
Type: physicochemical
Settings: * LC-MS determination in the acidic range at pH 2.7, 0.1% aqueous formic acid and acetonitrile, linear gradient 10% to 95% acetonitrile
Description: The calibration is carried out using unbranched alkan-2-ones (having 3 to 16 carbon atoms) with known log P values (determination of the log P values by the retention times using linear interpolation between two successive alkanones). The lambda-maX values were determined in the maxima of the chromatographic signals using the UV spectra from 200 nm to 400 nm.
In the case of `Cc1cc(C)n(C(C)(C)C(=O)N2CCC(c3nc(C(=O)OC4CCCc5ccccc54)cs3)CC2)n1` (stereo not shown) [compound 368], the log p is reported as 4.04*. With `Cc1cc(C)n(C(C)(C)C(=O)N2CCC(c3nc(C(=O)OC[Si](C)(C)C)cs3)CC2)n1` [compound 369] the log p was 3.84*. For `Cc1cc(C)n(C(C)(C)C(=O)N2CCC(c3nc(C(=O)OC4CCCCC4)cs3)CC2)n1` [compound 370], the log p was 3.78*. For `Cc1cc(C)n(C(C)(C)C(=O)N2CCC(c3nc(C(=O)OCC4CC4)cs3)CC2)n1` [compound 372], the log p was 3.86*. For `Cc1cc(C)n(C(C)(C)C(=O)N2CCC(c3nc(C(=O)OC4CCc5ccccc54)cs3)CC2)n1` (stereo not shown) [compound 376], the log p was 3.68*. For `Cc1cc(C)n(C(C)(C)C(=O)N2CCC(c3nc(C(=O)Oc4cccc5ccccc45)cs3)CC2)n1` [compound 377], the log p was 3.82*. For `Cc1cc(C)n(C(C)(C)C(=O)N2CCC(c3nc(C(=O)Oc4ccc5ccccc5c4)cs3)CC2)n1` [compound 378], the log p was 3.73*. With `Cc1cc(C)n(C(C)(C)C(=O)N2CCC(c3nc(C(=O)OCc4ccccc4)cs3)CC2)n1` [compound 379] the log p was 3.19*. For `Cc1cc(C)n(C(C)(C)C(=O)N2CCC(c3nc(C(=O)OCCc4ccc(F)cc4)cs3)CC2)n1` [compound 405], the log p was 3.42*. With `Cc1cc(C)n(C(C)(C)C(=O)N2CCC(c3nc(C(=O)Oc4ccccc4)cs3)CC2)n1` [compound 412] the log p was 3.06*. For `Cc1cc(C)n(C(C)(C)C(=O)N2CCC(c3nc(C(=O)Oc4ccc(F)cc4)cs3)CC2)n1` [compound 413], the log p was 3.21*. In the case of `Cc1cc(C)n(C(C)(C)C(=O)N2CCC(c3nc(C(=O)OCc4ccncc4)cs3)CC2)n1` [compound 442], the log p is reported as 1.33*. For `Cc1cc(C)n(C(C)(C)C(=O)N2CCC(c3nc(C(=O)OCc4cccs4)cs3)CC2)n1` [compound 443], the log p was 3.06*.

Same assay, conditions: * LC-MS determination in the acidic range at pH 2.7, mobile phases 0.1% aqueous formic acid and acetonitrile (0.1% formic acid), linear gradient 10% to 95% acetonitrile; reversed-phase C 18 HPLC
For `CC(C(=O)N1CCC(c2nc(C(=O)Oc3cccc4ccccc34)cs2)CC1)n1ccc(C(F)(F)F)n1` (stereo not shown) [compound 773], the log p was 3.87*. In the case of `CC(C(=O)N1CCC(c2nc(C(=O)OC3CCCCC3)cs2)CC1)n1ccc(C(F)(F)F)n1` (stereo not shown) [compound 774], the log p is reported as 3.88*. With `Cc1cc(C(F)(F)F)nn1CC(=O)N1CCC(c2nc(C(=O)OCc3ccc(Cl)c(Cl)c3)cs2)CC1` [compound 775] the log p was 4.09*. In the case of `Cc1cc(C(F)(F)F)nn1CC(=O)N1CCC(c2nc(C(=O)OCc3ccc(C(F)(F)F)cc3)cs2)CC1` [compound 776], the log p is reported as 3.86*. In the case of `O=C(Oc1cccc2ccccc12)c1csc(C2CCN(C(=O)Cn3nc(C(F)(F)F)cc3-c3ccccc3)CC2)n1` [compound 777], the log p is reported as 4.50*. In the case of `Cc1cc(C(F)(F)F)nn1CC(=O)N1CCC(c2nc(C(=O)OC/C=C/c3ccccc3)cs2)CC1` [compound 779], the log p is reported as 3.74*. In the case of `Cc1cc(C(F)(F)F)nn1CC(=O)N1CCC(c2nc(C(=O)OCc3cccnc3)cs2)CC1` [compound 780], the log p is reported as 1.74*. For `Cc1cc(C(F)(F)F)nn1CC(=O)N1CCC(c2nc(C(=O)Oc3ccc4cccnc4c3)cs2)CC1` [compound 781], the log p was 2.42*. With `Cc1cc(C(F)(F)F)nn1CC(=O)N1CCC(c2nc(C(=O)Oc3cccc4cccnc34)cs2)CC1` [compound 782] the log p was 2.88*. For `Cc1cc(C(F)(F)F)nn1CC(=O)N1CCC(c2nc(C(=O)OCc3cccc4ccccc34)cs2)CC1` [compound 783], the log p was 3.90*. For `Cc1cc(C(F)(F)F)nn1CC(=O)N1CCC(c2nc(C(=O)OCc3ccc4ccccc4c3)cs2)CC1` [compound 784], the log p was 3.92*. With `Cc1cc(C(F)(F)F)nn1CC(=O)N1CCC(c2nc(C(=O)OC(C)c3cccc4ccccc34)cs2)CC1` (stereo not shown) [compound 785] the log p was 4.16*. With `Cc1cc(C(F)(F)F)nn1CC(=O)N1CCC(c2nc(C(=O)OC(C)c3ccc4ccccc4c3)cs2)CC1` (stereo not shown) [compound 786] the log p was 4.18*. With `Cc1cc(C(F)(F)F)nn1CC(=O)N1CCC(c2nc(C(=O)OCC#Cc3ccccc3)cs2)CC1` [compound 787] the log p was 3.70*. With `Cc1cc(C(F)(F)F)nn1CC(=O)N1CCC(c2nc(C(=O)OC3CCCCCC3)cs2)CC1` [compound 788] the log p was 4.09*. With `Cc1cc(C(F)(F)F)nn1CC(=O)N1CCC(c2nc(C(=O)Oc3cccc4c3CCCC4)cs2)CC1` [compound 790] the log p was 4.21*. With `Cc1cc(C(F)(F)F)nn1CC(=O)N1CCC(c2nc(C(=O)OC3Cc4ccccc4C3)cs2)CC1` [compound 791] the log p was 3.67*. For `Cc1cc(C(F)(F)F)nn1CC(=O)N1CCC(c2nc(C(=O)Oc3cccc4c3CCCC4)cs2)CC1` [compound 792], the log p was 4.30*. In the case of `Cc1cc(C(F)(F)F)nn1CC(=O)N1CCC(c2nc(C(=O)Oc3ccc4ncccc4c3)cs2)CC1` [compound 793], the log p is reported as 2.37*. For `Cc1cc(C(F)(F)F)nn1CC(=O)N1CCC(c2nc(C(=O)Oc3cccc4cnccc34)cs2)CC1` [compound 794], the log p was 2.18*. In the case of `Cc1cc(C(F)(F)F)nn1CC(=O)N1CCC(c2nc(C(=O)O[C@@H]3CCCc4ccccc43)cs2)CC1` [compound 795], the log p is reported as 4.06*. With `Cc1cc(C(F)F)n(CC(=O)N2CCC(c3nc(C(=O)OC4CCCCC4)cs3)CC2)n1` [compound 796] the log p was 3.28*. In the case of `Cc1cc(C)n(C(C)(C)C(=O)N2CCC(c3nc(C(=O)OC4CC(C)CCC4C(C)C)cs3)CC2)n1` (stereo not shown) [compound 797], the log p is reported as 5.51*. In the case of `C#CC1(OC(=O)c2csc(C3CCN(C(=O)C(C)(C)n4nc(C)cc4C)CC3)n2)CCCC1` [compound 798], the log p is reported as 3.28*. For `Cc1cc(C)n(C(C)(C)C(=O)N2CCC(c3nc(C(=O)OC4CC5CCC4(C)C5(C)C)cs3)CC2)n1` (stereo not shown) [compound 800], the log p was 5.08*. With `C=CC(CCC)OC(=O)c1csc(C2CCN(C(=O)C(C)(C)n3nc(C)cc3C)CC2)n1` (stereo not shown) [compound 801] the log p was 3.78*. For `Cc1cc(C)n(C(C)(C)C(=O)N2CCC(c3nc(C(=O)OC4CC(C)CC(C(C)C)C4)cs3)CC2)n1` (stereo not shown) [compound 802], the log p was 5.58*. With `Cc1cc(C)n(C(C)(C)C(=O)N2CCC(c3nc(C(=O)OCCN(C)C)cs3)CC2)n1` [compound 803] the log p was 1.03*. For `C#CC1(OC(=O)c2csc(C3CCN(C(=O)C(C)(C)n4nc(C)cc4C)CC3)n2)CCCCC1` [compound 804], the log p was 3.73*. For `CCCCC(CC)COC(=O)c1csc(C2CCN(C(=O)C(C)(C)n3nc(C)cc3C)CC2)n1` (stereo not shown) [compound 806], the log p was 5.08*.

Same assay, conditions: pH 2.7; read-out: log P (pH 2.7)
With `CC(C)(C)CCOC(=O)c1csc(C2CCN(C(=O)Cn3ccc(C(F)(F)F)n3)CC2)n1` [compound 767, 3,3-Dimethylbutyl 2-(1-{[3-(trifluoromethyl)-1H-pyrazol-1-yl]acetyl}piperidin-4-yl)-1,3-thiazole-4-carboxylate] the chromatographic logP was 3.82. `O=C(Oc1cccc2ccccc12)c1csc(C2CCN(C(=O)Cn3nc(C(F)(F)F)cc3C(F)(F)F)CC2)n1` [compound 771, 1-Naphthyl 2-(1-{[3,5-bis(trifluoromethyl)-1H-pyrazol-1-yl]acetyl}piperidin-4-yl)-1,3-thiazole-4-carboxylate] gave a chromatographic logP of 4.35. With `O=C(OC1CCCCC1)c1csc(C2CCN(C(=O)Cn3nc(C(F)(F)F)cc3C(F)(F)F)CC2)n1` [compound 772, Cyclohexyl 2-(1-{[3,5-bis(trifluoromethyl)-1H-pyrazol-1-yl]acetyl}piperidin-4-yl)-1,3-thiazole-4-carboxylate] the chromatographic logP was 4.39.

Same assay, conditions: reversed-phase (C18) HPLC column; * LC-MS determination in the acidic range at pH 2.7, 0.1% aqueous formic acid and acetonitrile, linear gradient 10% to 95% acetonitrile; read-out: log p
For `CC(C)(C)CCOC(=O)c1csc(C2CCN(C(=O)Cn3ccc(C(F)(F)F)n3)CC2)n1` [compound 767, 3,3-Dimethylbutyl 2-(1-{[3-(trifluoromethyl)-1H-pyrazol-1-yl]acetyl}piperidin-4-yl)-1,3-thiazole-4-carboxylate], the chromatographic logP was 3.82.

Same assay, conditions: reversed-phase C18 HPLC column; * LC-MS determination in the acidic range at pH 2.7, mobile phases 0.1% aqueous formic acid and acetonitrile (0.1% formic acid), linear gradient 10% to 95% acetonitrile; reversed-phase C 18 HPLC; read-out: log p
Work on `O=C(Oc1cccc2ccccc12)c1csc(C2CCN(C(=O)Cn3nc(C(F)(F)F)cc3C(F)(F)F)CC2)n1` [compound 771, 1-Naphthyl 2-(1-{[3,5-bis(trifluoromethyl)-1H-pyrazol-1-yl]acetyl}piperidin-4-yl)-1,3-thiazole-4-carboxylate] yielded a chromatographic logP of 4.35. `O=C(OC1CCCCC1)c1csc(C2CCN(C(=O)Cn3nc(C(F)(F)F)cc3C(F)(F)F)CC2)n1` [compound 772, Cyclohexyl 2-(1-{[3,5-bis(trifluoromethyl)-1H-pyrazol-1-yl]acetyl}piperidin-4-yl)-1,3-thiazole-4-carboxylate] gave a chromatographic logP of 4.39.
